From PubChem BioAssay (NCI)
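Where inhibition never reached the appropriate level, the endpoint shown equals the highest concentration tested. Otherwise, values were interpolated linearly from a five-concentration, 48-hour dose response in 96-well plates. The concentration for full growth arrest is given as TGI.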

Legend:
Assay in all cases: NCI-60 cell line screen, 48 h
SK-MEL-28 melanoma = test system: SK-MEL-28 melanoma
HS 578T breast = test system: HS 578T breast
SK-MEL-2 melanoma = test system: SK-MEL-2 melanoma
OVCAR-3 ovarian = test system: OVCAR-3 ovarian
SF-268 CNS = test system: SF-268 CNS
K-562 leukemia = test system: K-562 leukemia
HCT-116 colon = test system: HCT-116 colon
OVCAR-4 ovarian = test system: OVCAR-4 ovarian
SN12C renal = test system: SN12C renal
SF-295 CNS = test system: SF-295 CNS
MALME-3M melanoma = test system: MALME-3M melanoma
UO-31 renal = test system: UO-31 renal
SNB-19 CNS = test system: SNB-19 CNS
A549 NSCLC = test system: A549 NSCLC
OVCAR-5 ovarian = test system: OVCAR-5 ovarian
TK-10 renal = test system: TK-10 renal
HL-60(TB) leukemia = test system: HL-60(TB) leukemia
NCI-H23 lung = test system: NCI-H23 lung
UACC-62 melanoma = test system: UACC-62 melanoma
MDA-MB-231 breast = test system: MDA-MB-231 breast
SW-620 colon = test system: SW-620 colon
EKVX NSCLC = test system: EKVX NSCLC
HT29 colon = test system: HT29 colon
LOX IMVI melanoma = test system: LOX IMVI melanoma
CCRF-CEM leukemia = test system: CCRF-CEM leukemia
HOP-92 NSCLC = test system: HOP-92 NSCLC
M14 melanoma = test system: M14 melanoma
KM12 colon = test system: KM12 colon
NCI-H226 lung = test system: NCI-H226 lung
DU-145 prostate = test system: DU-145 prostate
SK-MEL-5 melanoma = test system: SK-MEL-5 melanoma
OVCAR-8 ovarian = test system: OVCAR-8 ovarian
A498 renal = test system: A498 renal
HOP-62 NSCLC = test system: HOP-62 NSCLC
HCT-15 colon = test system: HCT-15 colon
MDA-N = test system: MDA-N
ACHN renal = test system: ACHN renal
NCI-H522 lung = test system: NCI-H522 lung
SK-OV-3 ovarian = test system: SK-OV-3 ovarian
U251 CNS = test system: U251 CNS
SR leukemia = test system: SR leukemia
SF-539 CNS = test system: SF-539 CNS
NCI/ADR-RES ovarian = test system: NCI/ADR-RES ovarian
COLO 205 colon = test system: COLO 205 colon
IGROV1 ovarian = test system: IGROV1 ovarian
NCI-H460 lung = test system: NCI-H460 lung
MDA-MB-435 = test system: MDA-MB-435
T-47D breast = test system: T-47D breast
PC-3 prostate = test system: PC-3 prostate
HCC-2998 colon = test system: HCC-2998 colon
CAKI-1 renal = test system: CAKI-1 renal
RXF 393 renal = test system: RXF 393 renal
MOLT-4 leukemia = test system: MOLT-4 leukemia
RPMI-8226 leukemia = test system: RPMI-8226 leukemia
UACC-257 melanoma = test system: UACC-257 melanoma
BT-549 breast = test system: BT-549 breast
SNB-75 CNS = test system: SNB-75 CNS
786-0 renal = test system: 786-0 renal
MCF7 breast = test system: MCF7 breast

Cn1c(=O)ccc2c(=O)c3ccccc3oc21
TGI (SK-MEL-28 melanoma): > 100 µM
TGI (HS 578T breast): > 100 µM
TGI (SK-MEL-2 melanoma): > 100 µM
TGI (OVCAR-3 ovarian): > 100 µM
TGI (SF-268 CNS): > 100 µM
TGI (K-562 leukemia): > 100 µM
TGI (HCT-116 colon): > 100 µM
TGI (OVCAR-4 ovarian): > 100 µM
TGI (SN12C renal): > 100 µM
TGI (SF-295 CNS): > 100 µM
TGI (MALME-3M melanoma): > 100 µM
TGI (UO-31 renal): 16.8 µM
TGI (SNB-19 CNS): > 100 µM
TGI (A549 NSCLC): > 100 µM
TGI (OVCAR-5 ovarian): > 100 µM
TGI (TK-10 renal): > 100 µM
TGI (HL-60(TB) leukemia): > 100 µM
TGI (NCI-H23 lung): > 100 µM
TGI (UACC-62 melanoma): > 100 µM
TGI (MDA-MB-231 breast): > 100 µM
TGI (SW-620 colon): > 100 µM
TGI (EKVX NSCLC): > 100 µM
TGI (HT29 colon): > 100 µM
TGI (LOX IMVI melanoma): > 100 µM
TGI (CCRF-CEM leukemia): > 100 µM
TGI (HOP-92 NSCLC): > 100 µM
TGI (M14 melanoma): > 100 µM
TGI (KM12 colon): > 100 µM
TGI (NCI-H226 lung): > 100 µM
TGI (DU-145 prostate): > 100 µM
TGI (SK-MEL-5 melanoma): > 100 µM
TGI (OVCAR-8 ovarian): > 100 µM
TGI (A498 renal): > 100 µM
TGI (HOP-62 NSCLC): > 100 µM
TGI (HCT-15 colon): > 100 µM
TGI (MDA-N): > 100 µM
TGI (ACHN renal): > 100 µM
TGI (NCI-H522 lung): > 100 µM
TGI (SK-OV-3 ovarian): > 100 µM
TGI (U251 CNS): > 100 µM
TGI (SR leukemia): > 100 µM
TGI (SF-539 CNS): > 100 µM
TGI (NCI/ADR-RES ovarian): > 100 µM
TGI (COLO 205 colon): > 100 µM
TGI (IGROV1 ovarian): > 100 µM
TGI (NCI-H460 lung): > 100 µM
TGI (MDA-MB-435): > 100 µM
TGI (T-47D breast): > 100 µM
TGI (PC-3 prostate): > 100 µM
TGI (HCC-2998 colon): > 100 µM
TGI (CAKI-1 renal): > 100 µM
TGI (RXF 393 renal): > 100 µM

CCCC(=O)OC[n+]1ccc(-c2c(COC(=O)NC(C)C)c(COC(=O)NC(C)C)c3n2CCC3)cc1
TGI (SK-MEL-28 melanoma): > 100 µM
TGI (HS 578T breast): > 100 µM
TGI (SK-MEL-2 melanoma): > 100 µM
TGI (OVCAR-3 ovarian): > 100 µM
TGI (MOLT-4 leukemia): > 100 µM
TGI (SF-268 CNS): > 100 µM
TGI (K-562 leukemia): > 100 µM
TGI (HCT-116 colon): > 100 µM
TGI (OVCAR-4 ovarian): > 100 µM
TGI (SN12C renal): > 100 µM
TGI (SF-295 CNS): > 100 µM
TGI (MALME-3M melanoma): > 100 µM
TGI (UO-31 renal): > 100 µM
TGI (SNB-19 CNS): > 100 µM
TGI (A549 NSCLC): > 100 µM
TGI (OVCAR-5 ovarian): > 100 µM
TGI (TK-10 renal): > 100 µM
TGI (HL-60(TB) leukemia): > 100 µM
TGI (NCI-H23 lung): > 100 µM
TGI (UACC-62 melanoma): > 100 µM
TGI (MDA-MB-231 breast): > 100 µM
TGI (SW-620 colon): > 100 µM
TGI (RPMI-8226 leukemia): > 100 µM
TGI (EKVX NSCLC): > 100 µM
TGI (HT29 colon): > 100 µM
TGI (LOX IMVI melanoma): > 100 µM
TGI (CCRF-CEM leukemia): > 100 µM
TGI (HOP-92 NSCLC): > 100 µM
TGI (M14 melanoma): > 100 µM
TGI (UACC-257 melanoma): > 100 µM
TGI (KM12 colon): > 100 µM
TGI (NCI-H226 lung): > 100 µM
TGI (DU-145 prostate): > 100 µM
TGI (SK-MEL-5 melanoma): > 100 µM
TGI (BT-549 breast): > 100 µM
TGI (SNB-75 CNS): > 100 µM
TGI (OVCAR-8 ovarian): > 100 µM
TGI (786-0 renal): > 100 µM
TGI (A498 renal): > 100 µM
TGI (HOP-62 NSCLC): > 100 µM
TGI (HCT-15 colon): > 100 µM
TGI (ACHN renal): > 100 µM
TGI (NCI-H522 lung): > 100 µM
TGI (SK-OV-3 ovarian): > 100 µM
TGI (U251 CNS): > 100 µM
TGI (MCF7 breast): > 100 µM
TGI (SR leukemia): > 100 µM
TGI (SF-539 CNS): > 100 µM
TGI (NCI/ADR-RES ovarian): > 100 µM
TGI (COLO 205 colon): > 100 µM
TGI (IGROV1 ovarian): > 100 µM
TGI (NCI-H460 lung): > 100 µM
TGI (MDA-MB-435): > 100 µM
TGI (T-47D breast): > 100 µM
TGI (PC-3 prostate): > 100 µM
TGI (HCC-2998 colon): > 100 µM
TGI (CAKI-1 renal): > 100 µM
TGI (RXF 393 renal): > 100 µM
